Results published in patent publication US3937838A, “Orally active bronchospasmolytic compounds and their preparation” (priority 1966, dated 1976).
Entries after “also recorded” stand apart in the source; their conditions may differ. Like-named read-outs stand apart in the source and are kept apart here.

Tests used:
[1] = test system: spirally cut trachea from the guinea pig; test: Bronchospasmolytic effect in vitro (Example 5a), spirally cut trachea; conditions: at ED50; pilocarpine contracted; racemic terbutaline
Method: Pharmacol. Exp. Ther. 90 (1947) page 104] and later modified by Constantine [J. Pharm. Pharmacol. 17 (1965) page 384]. In this test, guinea pigs are stunned with a blow on the head and bled to death. The trachea is dissected out, cut spirally and mounted in an organ bath (25 ml) in Krebs solution continuously aerated with oxygen (95%) and carbon dioxide (5%). […] The tension of the preparation is measured and is usually about 2 gm. initially. Dose response curves for epinephrine and each of the test compounds are then evaluated on the same muscle preparation.

[2] = test system: histamine induced bronchoconstriction; test: Bronchospasmolytic effect in vivo, Konzett and Rossler (Example 5b); set-up: species or system guinea pig; conditions: intravenous; histamine-induced bronchospasm; FIG. 1
Method: Orciprenaline and terbutaline were also tested in vivo according to the method described by Konzett and Rossler [Arch. Exp. Path. Pharmak. 195 (1940) page 71]. In the method of Konzett and Rossler, the animal is ventilated with a constant volume of air. When a certain pressure has been reached in the lung, the volume of air which is in excess of the pulmonary capacity will escape through the valve. This surplus of air is recorded. The testing compounds in the Konzett and Rossler method, bronchial contraction is provoked by administration of histamine. The histamine reduced the capacity of the airways, and the measured overflow increases. In order to see to what extent a test compound counteracts the histamine-induced bronchospasm, the animal is first given an injection of the test compound which is followed 3 minutes later by exposure to histamine.

[3] = test system: right auricle from the guinea pig; test: Dual preparation test in vitro, effect on auricle (Example 5c); conditions: slow infusion, FIGS. 2-4
Text: (§1) [This procedure is more fully described below in Example 5 (b)].
FIG. 2 illustrates the effect of epinephrine (EPE) and terbutaline on spirally cut trachea and right auricle from the guinea pig. Both preparations are dissected out from the same animal and run under identical experimental conditions;
Both preparations are dissected out from the same animal, and run under identical experimental conditions;
Both preparations are dissected out from the same animal and run under identical experimental conditions;
The relation between the heart stimulatory effect and bronchodilator effect was studied in vitro on auricle-trachea-preparation from the guinea pig in order to compare the effect on the heart and the effect on the bronchial muscle under identical experimental conditions. Both spontaneously bearing auricle and spirally-cut trachea were placed in the same bath in Krebs solution. Both preparations were taken from the same animal.
The compound to be tested was slowly infused into the bathing solution and the tension was measured for each of the auricle and trachael preparations.
In carrying out this dual preparation test, epinephrine was used as a reference. […] Infusion of epinephrine was made over a period of ten minutes. After washing and recovery, the test solution was infused in the same manner and the effect of the test compound was compared with the effect of epinephrine.
Referring more specifically to FIG. 2, the upper portion of each chart thereof represents the tension continuously recorded of the auricle preparation (shaded area 1 for the effect of epinephrine on the auricle, ref. no. 2 for the effect of terbutaline infused at a rate of 0.2 μg/min on the auricle, and ref. no. 3 for the effect of terbutaline infused at a rate of 0.375μg/min on the auricle).

isolated rabbit heart = test: Effect on isolated heart, Langendorff preparation (Example 5d)
Method: The effect of the compound of the present invention was also studied on isolated rabbit heart (Langendorff preparation) the method used as described by Anden et al. (Acta Pharmacol. et Toxicol., 21 (1964) page 247). In this procedure, the isolated heart is mounted in a Krebs solution and the test compound is injected into it. Measurements are continuously recorded of the rate and force of contraction.
The tests using epinephrine establish a standard of comparison to evaluate subsequent test compounds in the same preparation.

[4] = test system: sphincter of Oddi (choledochoduodenal sphincter); test: Effect on sphincter of Oddi (Example 5e); format: in vivo, cat
Method: The effect of terbutaline on the choledochoduodenal sphincter of young, healthy cats was studied. Young animals weighing at least 2.0 kg were used. After being deprived of food but not water for 24 hours, they were anesthetized with pentobarbitol (40 mg/kg i.p.). The terminal portion of a common bile duct was isolated and cannulated toward the duodenum. The hepatic part of the bile duct was drained to prevent distention. The pressure was continuously recorded by the open tip technique. Details of the experimental set up have been published by Liedberg and Halabi [Acta. Chir. Scand. 136 (1970) page 208.] Heart rate was recorded on all experiments and blood pressure by arterial cannulation in some.
Referring to the upper curve of FIGS. 7 and 8, the heart rate is continuously recorded. Concurrent records are made in the middle curve and lower curve of the pressures measured respectively in the common bile duct and in the lower duodenum.
As a control in this test, the animal was also treated with 0.5 international units per kg of cholecystokinin (CCK).
In a second test of the effect of terbutaline and isoprenaline on the sphincter (see FIG. 8), the duodenal motility was measured without being affected by CCK.

guinea pig trachea = test: Bronchospasmolytic effect in vitro (Example 13); conditions: based on ED50-values; weight basis; Table 7
Method: The trachea from a guinea pig was dissected out and spirally cut. It was mounted in a water-jacketed bath (37°C.) in Krebs solution and aerated with oxygen (95%) and carbon dioxide (5%). Pilocarpine (2 μg/ml) was added. The load was adjusted to about 2 g and relaxations in the trachea were recorded by means of a Grass force displacement transducer and a Grass polygraph model 5 (see Example 5 above). The cumulative method was used (-)-Epinephrine was used as reference. The comparisons presented in Table 7 are based on ED50 -values.

[5] = test system: bronchoconstriction by histamine aerosol; test: Protecting effect against histamine aerosol in guinea pigs (Example 15); format: in vivo, guinea pig; conditions: Cavia porcellus, read-out: ED50 (protecting 50 percent of the animals for more than 4 minutes)
Text: Male guinea pigs (200--300 g) were used. Bronchoconstriction was produced by letting the animals inhale a histamine aerosol.

asthmatic patients = test: Clinical trials, arterial oxygen tension in asthmatic patients; format: in vivo, human; conditions: a number of clinical trials
Text: Because stimulation of the cardiovascular system is thought to be a cause of the adverse effects of many of the prior art compounds on blood oxygen pressures, it is expected that the compounds of the present invention will be less likely to lead to a fall in blood oxygen pressure then compounds such as epinephrine or isoprenaline. The compounds of the present invention have the added advantage of improved longevity of action over all of the compounds described above. […] This improvement has been observed in a number of clinical trials.

[6] = test system: bronchial muscle and heart
Text: as §1

[7] = test system: cardioaccelerating effect; conditions: in vivo
Text: as §1

[8] = anesthetized cats, concurrent with sphincter effect

CC(C)(C)NCC(O)c1cc(O)cc(O)c1 (racemic) [terbutaline, 1-(3',5'-dihydroxyphenyl)-2-(t-butylamino)-ethanol]
relaxation of trachea, activity relative to orciprenaline [1]: about two
relaxation of trachea, potency relative to (-)-epinephrine [1]: slightly less potent than (-)-epinephrine
bronchospasmolytic effect relative to orciprenaline [2]: twice
cardiac stimulation in relation to bronchodilator effect ([3]; both preparations in same bath): bronchodilation was obtained without any effect on the heart muscle preparation
effect on auricle (tension) ([3]; 0.375 μg/min where stated): little observable effect on the auricle
effect on isolated heart relative to epinephrine (isolated rabbit heart; cardiac/cardioaccelerating effect, FIGS. 5, 6): about one-fiftieth
effect on rate and force of isolated heart (isolated rabbit heart; injection, FIG. 5): weak
number of cats responding (the other five of 25) ([4]; 5-10 μg/kg): five
duodenal pressure / motility [4, 8]: only slightly affects; also recorded: minimum effects
heart rate [4, 8]: only slightly affects the heart rate; also recorded: minimum effects on heart rate
common bile duct pressure / sphincter relaxation ([4]; anesthetized cats, i.v., 1 μg/kg terbutaline in FIG. 7, FIG. 8): substantially reduces the common bile duct pressures; also recorded: relaxed the sphincter
number of cats responding (of 25) ([4]; dose range 0.5-4.0 μg/kg): 20 cats
bronchospasmolytic effect x (-)epinephrine (guinea pig trachea): 0.8 ± 0.1
ED50 ([5]; 0.5 h, oral, 30 minutes before histamine): 0.4 mg/kg
ED50 ([5]; ip, 0.25 h, i.p., 15 minutes before histamine): 0.15 mg/kg
arterial oxygen tension (asthmatic patients): improved arteriel oxygen tension in asthmatic patients
duration of effect versus orciprenaline [6]: longer than that of orciprenaline
bronchodilator potency versus orciprenaline ([6]; in vitro and in vivo): more potent bronchodilator
cardioaccelerating effect [7]: weak cardioaccelerating effect
